In brackets after ≈: the same amount, converted by molar mass. Bridge positions count the residues as written; N and C are the ends. Square brackets hold non-standard residues; d marks the D form. Peptide text beside a SMILES is read from it. AEEA = NCCOCCOCC(=O)O
Columns and labels:
[1] = test system: E. coli ATCCO157; assay type: cell-based, Escherichia coli; conditions: MHB, 1 × 10^5 CFU/mL, 37 °C, 18 – 24 h, triplicate
Method: (§1) The MIC was determined according to the method developed by Clinical and Laboratory Standards Institute (CLSI). The strains were cultured in Mueller–Hinton Broth medium (MHB) at the appropriate temperature until mid-log phase. A series of two-fold dilutions of N6 and PEGylated N6 (10 μL) and bacterial suspension (1 × 10^5 CFU/mL, 90 μL) were added into 96-well plates and incubated at 37 °C for 18 – 24 h. PBS and MHB were used as the negative and blank control, respectively. All assays were conducted in triplicate.

[2] = test system: E. coli CVCC1515; assay type: cell-based, Escherichia coli
Method: as §1

[3] = test system: E. coli CVCC195; assay type: cell-based, Escherichia coli
Method: as §1

[4] = test system: E. coli CVCC25922; assay type: cell-based, Escherichia coli
Method: as §1

[5] = test system: P. aeruginosa CICC21630; assay type: cell-based
Method: as §1

[6] = test system: S. aureus ATCC25923; assay type: cell-based
Method: as §1

[7] = test system: S. aureus ATCC43300; assay type: cell-based
Method: as §1

[8] = test system: S. aureus ATCC546; assay type: cell-based
Method: as §1

[9] = test system: S. enteritidis CVCC3377; assay type: cell-based
Method: as §1

[10] = test system: S. hyicus NCTC10350; assay type: cell-based
Method: as §1

[11] = test system: S. typhimurium ATCC14028; assay type: cell-based
Method: as §1

[12] = test system: S. pullorum CVCC1789; assay type: cell-based, Salmonella pullorum
Method: as §1

[13] = test system: S. pullorum CVCC1802; assay type: cell-based, Salmonella pullorum
Method: as §1

[14] = test system: S. pullorum CVCC533; assay type: cell-based, Salmonella pullorum
Method: as §1

[15] = test system: C. albicans CMCC98001; assay type: cell-based, Candida albicans
Method: as §1

With `CC(C)[C@@H]1NC(=O)CNC(=O)[C@H](CC(N)=O)NC(=O)[C@H](CCCNC(=N)N)NC(=O)[C@H](Cc2ccc(O)cc2)NC(=O)[C@H](C(C)C)NC(=O)[C@@H](NC(=O)[C@@H](NC(=O)[C@H](CC(N)=O)NC(=O)[C@H](Cc2c[nH]c3ccccc23)NC(=O)[C@H](C)NC(=O)[C@H](Cc2ccccc2)NC(=O)CNC(=O)COCCOCCN)C(C)C)CSSC[C@@H](C(=O)N[C@@H](Cc2c[nH]cn2)C(=O)N[C@@H](CCCNC(=N)N)C(=O)N[C@@H](CCCNC(=N)N)C(=O)N[C@@H](C)C(=O)N[C@@H](CC(N)=O)C(=O)O)NC(=O)[C@H](C(C)C)NC(=O)[C@H](CCCNC(=N)N)NC1=O` [N6-NH2-miniPEG] (H-[AEEA]GFAWNVCVYRNGVRVCHRRAN-OH; disulfide 8-17) the MIC [1] was 6.10 µM (≈ 16 µg/mL), the MIC [2] was 6.1 µM (≈ 16 µg/mL) and the MIC [3] was 6.1 µM (≈ 16 µg/mL). The MIC [4] was 3.05 µM (≈ 7.99 µg/mL), the MIC [5] was 24.42 µM (≈ 64 µg/mL) and the MIC [6] was > 48.84 µM. It also gave an MIC [7] of 48.84 µM (≈ 128 µg/mL), an MIC [8] of 48.84 µM (≈ 128 µg/mL) and an MIC [9] of 6.10 µM (≈ 16 µg/mL). For the same compound, the MIC [10] was > 48.84 µM, the MIC [11] was 6.10 µM (≈ 16 µg/mL) and the MIC [12] was 6.10 µM (≈ 16 µg/mL). The MIC [13] was 6.10 µM (≈ 16 µg/mL), the MIC [14] was 12.21 µM (≈ 32 µg/mL) and the MIC [15] was > 48.84 µM.

— paper PMC9097129, “C-terminal mini-PEGylation of a marine peptide N6 had potent antibacterial and anti-inflammatory properties against Escherichia coli and Salmonella strains in vitro and in vivo” (BMC Microbiology, 2022)
